Experimental data from US20080292584A1 (priority 2005, published 2008).
“And” between values parts separate entries of the source, which are not always exact repeats. Equal values may be shown once. Read-outs that look alike come from different tables or passages of the source.

Legend:
CYP2E1 = CYP2E1 (Homo sapiens, UniProt P05181); details: both, microsomes, 1 h, 0.75 μM, pH 7.4
Protocol: (§1) Human liver microsomes pooled from 15 individuals (male and female) (Pool HMMC-PL020; CellzDirect, Inc., In Vitro Products and Services Division) were used in some experiments of this study.
(§2) % Turnover=100−{[TA(final)]/[mean of TA(0 min)]}×100,
(§3) % Inhibition of Turnover=100{1−([TA(0 min)]−[TA(final-inhibitor)])/([TA(0 min)]−[TA(final-no inhibitor)])}.
(§4) The inhibitors or vehicle control were incubated with the pooled human liver microsomes (1 mg/mL) and NADPH (1 mM) in 0.1 M phosphate buffer, pH 7.4. […] Incubations were conducted in triplicate and terminated by addition of organic solvent. Samples were extracted and analyzed by LC-MS/MS as described above.

CYP2C19 = CYP2C19 (Homo sapiens, UniProt P33261); details: for 4′-Hydroxymephenytoin formation Adjusted Individual / 4′-Hydroxymephenytoin formation Adjusted Mean ± SD: 4 h; for Percent of VC / Specific Activity Individual / Specific Activity Mean ± SD: 48 h
CYP2C19, sequence (P33261 whole entry): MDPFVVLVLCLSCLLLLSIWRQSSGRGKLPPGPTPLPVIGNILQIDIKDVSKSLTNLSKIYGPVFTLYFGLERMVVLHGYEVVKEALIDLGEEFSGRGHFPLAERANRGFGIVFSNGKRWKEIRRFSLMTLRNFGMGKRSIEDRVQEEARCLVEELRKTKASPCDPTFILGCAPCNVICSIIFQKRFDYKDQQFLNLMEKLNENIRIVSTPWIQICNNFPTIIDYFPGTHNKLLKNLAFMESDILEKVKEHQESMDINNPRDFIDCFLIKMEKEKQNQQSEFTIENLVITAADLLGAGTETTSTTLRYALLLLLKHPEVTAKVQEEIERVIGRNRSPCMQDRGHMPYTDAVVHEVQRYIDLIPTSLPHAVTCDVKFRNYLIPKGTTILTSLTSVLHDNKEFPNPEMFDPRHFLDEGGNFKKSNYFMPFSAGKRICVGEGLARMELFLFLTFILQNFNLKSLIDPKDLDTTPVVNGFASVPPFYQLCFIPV
Source text: Hepatocytes from three human donors were obtained from a cryopreserved hepatocyte bank (In Vitro Technologies, Inc., USA). After thawing, viable hepatocytes were transferred to collagen-coated 48-well plates for attachment in plating medium (DMEM stock (Dulbecco's modified Eagle's medium, supplemented with bovine serum albumin, fructose, N-(2-hydroxyethyl)piperazine-N′-(2-ethanesulfonate) (HEPES), and sodium bicarbonate), supplemented with antibiotics, bovine serum, hydrocortisone, insulin and minimum essential medium (MEM) nonessential amino acids). After attachment to the collagen matrix, plating medium was replaced with sandwich medium (plating medium supplemented with VITROGEN) and incubated until use.
The supplemented KHB was replaced with 150 μL supplemented KHB containing the appropriate isoform-selective substrate and incubated for 4 hrs prior to termination by adding 150 μL ice-cold methanol, except for the CYP2C8 incubations which were terminated by adding 150 μL acetonitrile.
All substrates were dissolved in acetonitrile.
Replicate trials and controls were performed. […] Additionally, reference control samples were included to evaluate inducibility of CYP2B6, CYP2C9, and CYP2C19 in the test system.
Mean specific activity values with associated p-values≦0.05 were deemed to be statistically significant.

CYP2B6 = experiment: Chemical inhibition of metaxalone turnover in human liver microsomes, CYP2B6 inhibitor thio-TEPA; details: 1 mg/mL HLM, 60 min, with thio-TEPA; for % Turnover / % inhibition of turnover / Conc.: single replicates
Protocol: as §1, §2, §3, §4

human CYP1A2 = molecular target: T1, human CYP1A2 (Homo sapiens, UniProt P05177); experiment: Metabolism of metaxalone by expressed recombinant human CYP1A2 at 5 or 20 pmol (Example 4, LC-MS/MS); details: for percent turnover / % Turnover Mean / [metaxalone] Mean / % Turnover % / [metaxalone]: 60 min; for % Turnover % / [metaxalone]: single replicates, listed as Metaxalone
T1 sequence (P05177 2-516 limits assumed): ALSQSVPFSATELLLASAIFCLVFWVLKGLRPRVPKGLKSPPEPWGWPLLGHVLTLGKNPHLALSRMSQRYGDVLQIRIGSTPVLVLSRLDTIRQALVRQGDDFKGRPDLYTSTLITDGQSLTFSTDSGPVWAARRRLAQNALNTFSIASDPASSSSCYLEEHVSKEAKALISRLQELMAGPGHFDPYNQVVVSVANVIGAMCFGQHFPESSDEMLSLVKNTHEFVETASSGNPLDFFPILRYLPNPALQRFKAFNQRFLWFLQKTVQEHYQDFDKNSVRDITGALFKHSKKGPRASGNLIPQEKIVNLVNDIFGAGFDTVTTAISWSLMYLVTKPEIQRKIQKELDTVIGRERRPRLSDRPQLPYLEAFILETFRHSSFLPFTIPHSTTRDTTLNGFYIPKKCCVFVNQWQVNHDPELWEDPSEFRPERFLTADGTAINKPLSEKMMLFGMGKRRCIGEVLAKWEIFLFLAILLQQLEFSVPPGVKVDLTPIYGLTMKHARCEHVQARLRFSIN

[1] = 7.5 μM metaxalone, listed as Metaxalone
[2] = 0.75 μM metaxalone, 20 pmol cyp

CYP2E1, sequence (P05181 whole entry): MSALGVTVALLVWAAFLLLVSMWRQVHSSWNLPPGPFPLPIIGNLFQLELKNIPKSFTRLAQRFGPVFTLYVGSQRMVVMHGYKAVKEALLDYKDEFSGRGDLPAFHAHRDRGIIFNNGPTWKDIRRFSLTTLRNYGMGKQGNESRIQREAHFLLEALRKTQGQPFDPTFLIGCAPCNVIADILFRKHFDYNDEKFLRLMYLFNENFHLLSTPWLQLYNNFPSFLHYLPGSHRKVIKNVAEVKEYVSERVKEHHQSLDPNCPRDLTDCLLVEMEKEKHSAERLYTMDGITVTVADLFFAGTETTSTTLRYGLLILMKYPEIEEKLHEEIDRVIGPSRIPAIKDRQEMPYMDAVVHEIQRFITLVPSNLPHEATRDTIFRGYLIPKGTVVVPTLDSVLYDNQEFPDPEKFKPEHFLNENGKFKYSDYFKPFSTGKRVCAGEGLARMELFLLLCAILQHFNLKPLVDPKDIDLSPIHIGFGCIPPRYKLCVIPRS

Cc1cc(C)cc(OCC2CNC(=O)O2)c1 (stereo not drawn) [metaxalone, 5-[(3,5-dimethylphenoxy)methyl]-2-oxazolidinone]
% Turnover Mean (CYP2E1): −3.87% | Inducer/Inhibitor (CYP2C19): 0 | 4′-Hydroxymephenytoin formation Adjusted Individual (CYP2C19; 0.4 µM): <0.0500 µM | 4′-Hydroxymephenytoin formation Adjusted Mean ± SD (CYP2C19; 0.4 µM): <0.0500 ± 0.000 µM | 4′-Hydroxymephenytoin formation Adjusted Individual (CYP2C19; 0.4 μM): <0.0500 µM | 4′-Hydroxymephenytoin formation Adjusted Mean ± SD (CYP2C19; 0.4 μM): <0.0500 ± 0.000 µM | 4′-Hydroxymephenytoin formation Adjusted Individual (CYP2C19; 4 µM): <0.0500 µM | 4′-Hydroxymephenytoin formation Adjusted Mean ± SD (CYP2C19; 4 µM): <0.0500 ± 0.000 µM | 4′-Hydroxymephenytoin formation Adjusted Individual (CYP2C19; 4 μM): <0.0500 µM | 4′-Hydroxymephenytoin formation Adjusted Mean ± SD (CYP2C19; 4 μM): <0.0500 ± 0.000 µM | 4′-Hydroxymephenytoin formation Adjusted Individual (CYP2C19; 40 µM): <0.0500 µM | 4′-Hydroxymephenytoin formation Adjusted Mean ± SD (CYP2C19; 40 µM): <0.0500 ± 0.000 µM | 4′-Hydroxymephenytoin formation Adjusted Individual (CYP2C19; 40 μM): <0.0500 µM | 4′-Hydroxymephenytoin formation Adjusted Mean ± SD (CYP2C19; 40 μM): <0.0500 ± 0.000 µM | Percent of VC (CYP2C19; 0.4 µM): 100% | Specific Activity Individual (CYP2C19; 0.4 µM): <0.446 pmol/min/million cells | Specific Activity Mean ± SD (CYP2C19; 0.4 µM): <0.446 ± 0.000 pmol/min/million cells | Percent of VC (CYP2C19; 0.4 μM): 100% | Specific Activity Individual (CYP2C19; 0.4 μM): <0.446 pmol/min/million cells | Specific Activity Mean ± SD (CYP2C19; 0.4 μM): <0.446 ± 0.000 pmol/min/million cells | Percent of VC (CYP2C19; 4 µM): 100% | Specific Activity Individual (CYP2C19; 4 µM): <0.446 pmol/min/million cells | Specific Activity Mean ± SD (CYP2C19; 4 µM): <0.446 ± 0.000 pmol/min/million cells | Percent of VC (CYP2C19; 4 μM): 100% | Specific Activity Individual (CYP2C19; 4 μM): <0.446 pmol/min/million cells | Specific Activity Mean ± SD (CYP2C19; 4 μM): <0.446 ± 0.000 pmol/min/million cells | Percent of VC (CYP2C19; 40 µM): 100% | Specific Activity Individual (CYP2C19; 40 µM): <0.446 pmol/min/million cells | Specific Activity Mean ± SD (CYP2C19; 40 µM): <0.446 ± 0.000 pmol/min/million cells | Percent of VC (CYP2C19; 40 μM): 100% | Specific Activity Individual (CYP2C19; 40 μM): <0.446 pmol/min/million cells | Specific Activity Mean ± SD (CYP2C19; 40 μM): <0.446 ± 0.000 pmol/min/million cells | % Turnover Mean (CYP2B6; 0.75 μM metaxalone): 12.4% | % inhibition of turnover Mean (CYP2B6; 0.75 μM metaxalone): 58.3% | Mean Conc. (CYP2B6; 0.75 μM metaxalone): 0.676 µM | % Turnover (CYP2B6; 0.75 μM metaxalone): 12.1% and 11.3% and 13.8% | % inhibition of turnover (CYP2B6; 0.75 μM metaxalone): 59.3% and 62.0% and 53.7% | Conc. (CYP2B6; 0.75 μM metaxalone): 0.678 µM and 0.684 µM and 0.665 µM | % Turnover Mean (CYP2B6; 7.5 μM metaxalone): 14.0% | % inhibition of turnover Mean (CYP2B6; 7.5 μM metaxalone): 43.3% | Mean Conc. (CYP2B6; 7.5 μM metaxalone): 7.33 µM | % Turnover (CYP2B6; 7.5 μM metaxalone): 7.7% | % Turnover (CYP2B6; [1]): 14.8% and 19.4% | % inhibition of turnover (CYP2B6; [1]): 68.7% and 40.0% and 21.1% | Conc. (CYP2B6; [1]): 7.86 µM and 7.26 µM and 6.86 µM | percent turnover (human CYP1A2; 0.75 μM metaxalone, 5 pmol CYP450): 9.2% | % Turnover Mean (human CYP1A2; 0.75 μM metaxalone, 5 pmol cyp): 9.2% | [metaxalone] Mean (human CYP1A2; 0.75 μM metaxalone, 5 pmol cyp): 0.719 µM | % Turnover % (human CYP1A2; 0.75 μM metaxalone, 5 pmol cyp): 17.5% and 6.2% and 3.9% | [metaxalone] (human CYP1A2; 0.75 μM metaxalone, 5 pmol cyp): 0.653 µM and 0.742 µM and 0.761 µM | percent turnover (human CYP1A2; 0.75 μM metaxalone, 20 pmol CYP450): 34.8% | % Turnover Mean (human CYP1A2; [2]): 34.8% | [metaxalone] Mean (human CYP1A2; [2]): 0.516 µM | % Turnover % (human CYP1A2; [2]): 31.7% and 35.5% and 37.3% | [metaxalone] (human CYP1A2; [2]): 0.540 µM and 0.511 µM and 0.496 µM | percent turnover (human CYP1A2; 7.5 μM metaxalone, 5 pmol CYP450): 10.0% | % Turnover Mean (human CYP1A2; 7.5 μM metaxalone, 5 pmol cyp): 10.0% | [metaxalone] Mean (human CYP1A2; 7.5 μM metaxalone, 5 pmol cyp): 7.60 µM | % Turnover % (human CYP1A2; 7.5 μM metaxalone, 5 pmol cyp): 14.3% and 5.7% | [metaxalone] (human CYP1A2; 7.5 μM metaxalone, 5 pmol cyp): 7.24 µM and 7.97 µM | percent turnover (human CYP1A2; 7.5 μM metaxalone, 20 pmol CYP450): 30.4% | % Turnover Mean (human CYP1A2; 7.5 μM metaxalone, 20 pmol cyp): 30.4% | [metaxalone] Mean (human CYP1A2; 7.5 μM metaxalone, 20 pmol cyp): 5.88 µM | % Turnover % (human CYP1A2; 7.5 μM metaxalone, 20 pmol cyp): 33.3% and 32.3% and 25.5% | [metaxalone] (human CYP1A2; 7.5 μM metaxalone, 20 pmol cyp): 5.63 µM and 5.72 µM and 6.29 µM | Substrate (human CYP1A2; CYP isozyme 1A2, summary of studies): +
